Where a name gives a salt, the structure may show the parent alone. Read-outs that look alike come from different tables or passages of the source. Values belong to the molecule of their own block, whether it stands above or below them.
Assays:
[1] = Binary supramolecular self-assembly systems of polymer and target: guest concentration over incubation time (Comparative Example 2); type: physicochemical; conditions: for Concentration of guest molecule in solution / Times that of the initial medium: 6 h
Method: Experiments were conducted according to the steps in Comparative Example 1, and quantitative analysis was carried out using the analytical method for each target to investigate the regulation ability […] stacking.

[2] = cited from earlier work
[3] = cited from earlier work; remark: listed apart in the source
[4] = Guest molecule concentration after incubation in initial medium without polymer (Comparative Example 1); type: physicochemical; conditions: 37° C., pH 6.8 phosphate buffer
Outline: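 Dissolved guest content measured by HPLC of centrifuged supernatants (37° C., 13000 rpm, 5 min) sampled at 0.5 h, 3 h and 6 h. Incubation was polymer-free at 37° C.±0.5° C. in buffers of pH 2.0-7.4; nominal loading was set by maximum clinical dose.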

[5] = human use, cited from earlier work
[6] = natural flavonoids (chalcone, dihydrochalcone class), Table 1 basic information

- Concentration of the target in the solution measured after different incubation time ([1]; binary system with 0.5% polymer 101, incubation 0.5 h): 412.1 µg/mL
- Concentration of the target in the solution measured after different incubation time ([1]; binary system with 0.5% polymer 101, incubation 3 h): 214.9 µg/mL
- Concentration of the target in the solution measured after different incubation time ([1]; binary system with 0.5% polymer 101, incubation 6 h): 126.4 µg/mL
- Concentration of the target in the solution measured after different incubation time ([1]; binary system with 0.5% polymer 102, incubation 0.5 h): 456.4 µg/mL
- Concentration of the target in the solution measured after different incubation time ([1]; binary system with 0.5% polymer 102, incubation 3 h): 389.1 µg/mL
- Concentration of the target in the solution measured after different incubation time ([1]; binary system with 0.5% polymer 102, incubation 6 h): 383.3 µg/mL
- Concentration of the target in the solution measured after different incubation time ([1]; binary system with 0.5% polymer 103, incubation 0.5 h): 230.7 µg/mL
- Concentration of the target in the solution measured after different incubation time ([1]; binary system with 0.5% polymer 103, incubation 3 h): 231.0 µg/mL
- Concentration of the target in the solution measured after different incubation time ([1]; binary system with 0.5% polymer 103, incubation 6 h): 233.5 µg/mL
- Concentration of the target in the solution measured after different incubation time ([1]; binary system with 0.5% polymer 106, incubation 0.5 h): 469.5 µg/mL
- Concentration of the target in the solution measured after different incubation time ([1]; binary system with 0.5% polymer 106, incubation 3 h): 462.5 µg/mL
- Concentration of the target in the solution measured after different incubation time ([1]; binary system with 0.5% polymer 106, incubation 6 h): 478.8 µg/mL
- Concentration of the target in the solution measured after different incubation time ([1]; binary system with 0.5% polymer 107, incubation 0.5 h): 127.5 µg/mL
- Concentration of the target in the solution measured after different incubation time ([1]; binary system with 0.5% polymer 107, incubation 3 h): 130.9 µg/mL
- Concentration of the target in the solution measured after different incubation time ([1]; binary system with 0.5% polymer 107, incubation 6 h): 139.1 µg/mL
- Concentration of the target in the solution measured after different incubation time ([1]; binary system with 0.5% polymer 110, incubation 0.5 h): 112.7 µg/mL
- Concentration of the target in the solution measured after different incubation time ([1]; binary system with 0.5% polymer 110, incubation 3 h): 79.0 µg/mL
- Concentration of the target in the solution measured after different incubation time ([1]; binary system with 0.5% polymer 110, incubation 6 h): 77.6 µg/mL
- Concentration of guest molecule in solution ([1]; binary: 0.5% 102H): 383.3 µg/mL
- Times that of the initial medium ([1]; binary: 0.5% 102H): 3.0 times
- Concentration of guest molecule in solution ([1]; binary: 0.5% 103E5): 233.5 µg/mL
- Times that of the initial medium ([1]; binary: 0.5% 103E5): 1.8 times
- Concentration of guest molecule measured after different incubated time ([4]; 0.5 h): 169.9 µg/mL
- Concentration of guest molecule measured after different incubated time ([4]; 3 h): 126.7 µg/mL
- Concentration of guest molecule measured after different incubated time ([4]; 6 h): 129.1 µg/mL
Molecule: O=C1C[C@@H](c2ccc(O)cc2)Oc2cc(O)cc(O)c21 [Naringenin]
- solubility value given in Table 1 (basic information of natural flavonoids) ([2]; parent flavonoid of the class, value follows the class name): Naringenin (CAS 480-41) derivatives, EUF-0.58 mg/ml
- LogP [3]: LogP 2.71

Molecule: C=C1C[C@@]23CC[C@H]4[C@@](C)(CCC[C@@]4(C)C(=O)O[C@@H]4O[C@H](CO)[C@@H](O)[C@H](O)[C@H]4O)[C@@H]2CC[C@]1(O[C@@H]1O[C@H](CO)[C@@H](O)[C@H](O)[C@H]1O[C@@H]1O[C@H](CO)[C@@H](O)[C@H](O)[C@H]1O)C3 [Stevioside]
- Intrinsic solubility [2]: Intrinsic solubility: 6.7 mg/ml

Molecule: CC(=O)O[C@H]1[C@H](Oc2cc(O)c(C(=O)CCc3ccc(O)cc3)c(O)c2)O[C@H](CO)[C@@H](O)[C@@H]1O [Trilobatin 2″-acetate, [(2S,3R,4S,5S,6R)-(R)-2-[3,5-dihydroxy-4-[3-(4-hydroxyphenyl)propionyl]phenoxy]-4,5-dihydroxy-6-(hydroxymethyl)oxy-3-yl]acetate]
- LogP [2, 6]: 2.07
- Sol [2, 6]: 2.08 mg/mL

Molecule: O=C(CCc1ccc(O)cc1)c1c(O)cc(O[C@@H]2O[C@H](CO)[C@@H](O)[C@H](O)[C@H]2O)cc1O [Trilobatin, trilobatin]
- Sol [2, 6]: 3.89 mg/mL

Molecule: O=C(O[C@@H]1Cc2c(O)cc(O)cc2O[C@@H]1c1cc(O)c(O)c(O)c1)c1cc(O)c(O)c(O)c1 [compound 303, (−)−Epigallocatechin 3-gallate]
- Acceptable daily intake (ADI) [5]: 135-270 mg/person/ day mg/person/day

Molecule: C=C1C[C@@]23CC[C@H]4[C@@](C)(CCC[C@@]4(C)C(=O)O)[C@@H]2CC[C@]1(O[C@@H]1O[C@H](CO)[C@@H](O)[C@H](O[C@@H]2O[C@H](CO)[C@@H](O)[C@H](O)[C@H]2O)[C@H]1O[C@@H]1O[C@H](CO)[C@@H](O)[C@H](O)[C@H]1O)C3 [compound 307, Rebaudioside B]
- Acceptable daily intake (ADI) ([5]; bw: body weight): 6 mg/kg bw/day

Molecule: C=C1C[C@@]23CC[C@H]4[C@@](C)(CCC[C@@]4(C)C(=O)O[C@@H]4O[C@H](CO)[C@@H](O)[C@H](O)[C@H]4O)[C@@H]2CC[C@]1(O[C@@H]1O[C@H](CO)[C@@H](O)[C@H](O[C@@H]2O[C@H](CO)[C@@H](O)[C@H](O)[C@H]2O)[C@H]1O[C@@H]1O[C@@H](C)[C@H](O)[C@@H](O)[C@H]1O)C3 [compound 308, Rebaudioside C]
- Acceptable daily intake (ADI) ([5]; bw: body weight): 6 mg/kg bw/day

Molecule: C[C@@H]1O[C@@H](O[C@H]2[C@H](Oc3cc(O)c(C(=O)CCc4ccc(O)cc4)c(O)c3)O[C@H](CO)[C@@H](O)[C@@H]2O)[C@H](O)[C@H](O)[C@H]1O [compound 312, Naringin dihydrochalcone]
- Acceptable daily intake (ADI) [5]: 41 mg/person/ day mg/person/day

Molecule: CC1(C)[C@@H](O[C@H]2O[C@H](C(=O)O)[C@@H](O)[C@H](O)[C@H]2O[C@@H]2O[C@H](C(=O)O)[C@@H](O)[C@H](O)[C@H]2O)CC[C@]2(C)[C@H]3C(=O)C=C4[C@@H]5C[C@@](C)(C(=O)O)CC[C@]5(C)CC[C@@]4(C)[C@]3(C)CC[C@@H]12 [compound 314, Glycyrrhizic acid and its ammonium salt]
- Acceptable daily intake (ADI) ([5]; bw: body weight): 2 mg/kg bw/day

Molecule: C=C1C[C@@]23CC[C@H]4[C@@](C)(CCC[C@@]4(C)C(=O)O[C@@H]4O[C@H](CO)[C@@H](O)[C@H](O)[C@H]4O)[C@@H]2CC[C@]1(O[C@@H]1O[C@H](CO)[C@@H](O)[C@H](O)[C@H]1O[C@@H]1O[C@H](CO)[C@@H](O)[C@H](O)[C@H]1O)C3 [compound 315, Stevioside]
- Acceptable daily intake (ADI) ([5]; bw: body weight): 4 mg/kg bw/day

Molecule: O=C(OC[C@H]1O[C@@H](OC(=O)c2cc(O)c(O)c(OC(=O)c3cc(O)c(O)c(O)c3)c2)[C@H](OC(=O)c2cc(O)c(O)c(OC(=O)c3cc(O)c(O)c(O)c3)c2)[C@@H](OC(=O)c2cc(O)c(O)c(OC(=O)c3cc(O)c(O)c(O)c3)c2)[C@@H]1OC(=O)c1cc(O)c(O)c(OC(=O)c2cc(O)c(O)c(O)c2)c1)c1cc(O)c(O)c(OC(=O)c2cc(O)c(O)c(O)c2)c1 [compound 316, Tannic acid]
- Acceptable daily intake (ADI) ([5]; bw: body weight): 15 mg/kg bw/day

Molecule: COc1ccc([C@@H]2CC(=O)c3c(O)cc(O[C@@H]4O[C@H](CO)[C@@H](O)[C@H](O)[C@H]4O[C@@H]4O[C@@H](C)[C@H](O)[C@@H](O)[C@H]4O)cc3O2)cc1O [compound 318, Neohesperidin]
- Acceptable daily intake (ADI) ([5]; bw: body weight): 5 mg/kg bw/day

Molecule: C[C@H](CC[C@@H](O[C@@H]1O[C@H](CO[C@@H]2O[C@H](CO)[C@@H](O)[C@H](O)[C@H]2O)[C@@H](O)[C@H](O)[C@H]1O[C@@H]1O[C@H](CO)[C@@H](O)[C@H](O)[C@H]1O)C(C)(C)O)[C@H]1CC[C@@]2(C)[C@@H]3CC=C4[C@@H](CC[C@H](O[C@@H]5O[C@H](CO[C@@H]6O[C@H](CO)[C@@H](O)[C@H](O)[C@H]6O)[C@@H](O)[C@H](O)[C@H]5O)C4(C)C)[C@]3(C)[C@H](O)C[C@]12C [compound 319, Mogroside V]
- Acceptable daily intake (ADI) ([5]; bw: body weight): 0-2.5 mg/kg bw/day

Molecule: C=C1C[C@@]23CC[C@H]4[C@@](C)(CCC[C@@]4(C)C(=O)O[C@@H]4O[C@H](CO)[C@@H](O)[C@H](O)[C@H]4O[C@@H]4O[C@H](CO)[C@@H](O)[C@H](O)[C@H]4O)[C@@H]2CC[C@]1(O[C@@H]1O[C@H](CO)[C@@H](O)[C@H](O[C@@H]2O[C@H](CO)[C@@H](O)[C@H](O)[C@H]2O)[C@H]1OC1O[C@H](CO)[C@@H](O)[C@H](O)[C@H]1O)C3 (stereo partly drawn) [compound 320, Rebaudioside D]
- Acceptable daily intake (ADI) ([5]; bw: body weight): 3-5 mg/kg bw/day

Molecule: C=C1C[C@@]23CC[C@H]4[C@@](C)(CCC[C@@]4(C)C(=O)O[C@@H]4O[C@H](CO)[C@@H](O)[C@H](O[C@@H]5O[C@H](CO)[C@@H](O)[C@H](O)[C@H]5O)[C@H]4O[C@@H]4O[C@H](CO)[C@@H](O)[C@H](O)[C@H]4O)[C@@H]2CC[C@]1(O[C@@H]1O[C@H](CO)[C@@H](O)[C@H](O[C@@H]2O[C@H](CO)[C@@H](O)[C@H](O)[C@H]2O)[C@H]1OC1O[C@H](CO)[C@@H](O)[C@H](O)[C@H]1O)C3 (stereo partly drawn) [compound 321, Rebaudioside M]
- Acceptable daily intake (ADI) ([5]; bw: body weight): 4 mg/kg bw/day

Molecule: Isoquercitrin [compound 304]
- Acceptable daily intake (ADI) ([5]; bw: body weight): 3.3 mg/kg bw/day

Molecule: Myricitrin [compound 306]
- Acceptable daily intake (ADI) ([5]; bw: body weight): 14 mg/kg bw/day

Molecule: Neohesperidin dihydrochalcone [compound 310]
- Acceptable daily intake (ADI) ([5]; bw: body weight): 3-5 mg/kg bw/day
